ChEMBL document CHEMBL4706518, “Discovery of MGS0274, an ester prodrug of a metabotropic glutamate receptor 2/3 agonist with improved oral bioavailability” (Eur J Med Chem, 2020)
pEC50: −log10 of the molar value. The source made the active and inactive calls. The calls are words filed in the database; no cut-off is given here.

Columns and labels:
[1] = molecular target: Cysteinyl leukotriene receptor 1 (Homo sapiens) (UniProt Q9Y271); test: Binding affinity to Leukotriene D4 receptor (unknown origin) 10 umol/L by radioligand binding assay; conditions: dose 10.0 µmol/L
[2] = species: Homo sapiens; test: Binding affinity to Kainate receptor (unknown origin) 10 umol/L by radioligand binding assay; conditions: dose 10.0 µmol/L
[3] = molecular target: T1, Voltage-gated L-type calcium channel (Homo sapiens, UniProt Q13936+Q13698+Q01668+O60840); test: Binding affinity to Voltage-dependent L-type calcium channel phenylalkylamine site (unknown origin) 10 umol/L by radioligand binding assay; format: protein assay; conditions: 10 µM, dose 10 µmol/L
[4] = molecular target: Sodium-dependent noradrenaline transporter (Homo sapiens) (UniProt P23975); test: Binding affinity to norepinephrine transporter (unknown origin) 10 umol/L by radioligand binding assay; conditions: dose 10.0 µmol/L
[5] = molecular target: Histamine H3 receptor (Homo sapiens) (UniProt Q9Y5N1); test: Binding affinity to H3 receptor (unknown origin) 10 umol/L by radioligand binding assay; conditions: dose 10.0 µmol/L
Chain of Histamine H3 receptor (Homo sapiens) (Q9Y5N1 whole entry): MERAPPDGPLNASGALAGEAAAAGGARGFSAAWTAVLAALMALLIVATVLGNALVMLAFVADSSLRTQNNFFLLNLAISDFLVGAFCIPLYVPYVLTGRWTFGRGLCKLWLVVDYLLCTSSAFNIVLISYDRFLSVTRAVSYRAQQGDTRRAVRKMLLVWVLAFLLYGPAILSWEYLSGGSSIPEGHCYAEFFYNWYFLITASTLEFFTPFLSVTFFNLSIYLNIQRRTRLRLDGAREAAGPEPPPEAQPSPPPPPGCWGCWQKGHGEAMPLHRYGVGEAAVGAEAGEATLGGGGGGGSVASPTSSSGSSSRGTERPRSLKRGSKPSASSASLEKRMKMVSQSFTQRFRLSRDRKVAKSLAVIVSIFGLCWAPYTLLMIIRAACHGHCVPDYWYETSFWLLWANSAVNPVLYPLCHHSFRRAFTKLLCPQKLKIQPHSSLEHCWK

[6] = Lipophilicity, logD of compound in n-octanol and phosphate buffered saline at 2 mg after 1.5 hrs by HPLC based shake flask method; format: physicochemical
[7] = molecular target: 5-hydroxytryptamine receptor 1A (Homo sapiens) (UniProt P08908); test: Binding affinity to 5-HT1A receptor (unknown origin) 10 umol/L by radioligand binding assay; conditions: dose 10.0 µmol/L
Chain of 5-hydroxytryptamine receptor 1A (Homo sapiens) (P08908 whole entry): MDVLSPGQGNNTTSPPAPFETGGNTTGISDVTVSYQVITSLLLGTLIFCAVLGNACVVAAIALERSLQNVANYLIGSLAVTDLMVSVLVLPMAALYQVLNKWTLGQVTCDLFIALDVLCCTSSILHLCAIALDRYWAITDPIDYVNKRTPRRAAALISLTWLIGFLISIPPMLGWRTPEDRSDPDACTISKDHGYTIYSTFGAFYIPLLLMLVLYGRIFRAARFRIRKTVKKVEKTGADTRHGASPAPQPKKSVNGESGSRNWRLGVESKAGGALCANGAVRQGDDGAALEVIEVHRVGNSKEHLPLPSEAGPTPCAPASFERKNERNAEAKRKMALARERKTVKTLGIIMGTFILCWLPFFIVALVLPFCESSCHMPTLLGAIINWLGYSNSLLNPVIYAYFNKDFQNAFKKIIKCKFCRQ

[8] = molecular target: Endothelin receptor type B (Homo sapiens) (UniProt P24530); test: Binding affinity to ETB receptor (unknown origin) 10 umol/L by radioligand binding assay; conditions: dose 10.0 µmol/L
[9] = species: Homo sapiens; test: Binding affinity to GABA transporter (unknown origin) 10 umol/L by radioligand binding assay; conditions: dose 10.0 µmol/L
[10] = species: Homo sapiens; test: Binding affinity to NMDA receptor agonist site (unknown origin) 10 umol/L by radioligand binding assay; conditions: dose 10.0 µmol/L
[11] = molecular target: Alpha-2B adrenergic receptor (Homo sapiens) (UniProt P18089); test: Binding affinity to alpha2B adrenoreceptor (unknown origin) 10 umol/L by radioligand binding assay; conditions: dose 10.0 µmol/L
Chain of Alpha-2B adrenergic receptor (Homo sapiens) (P18089 whole entry): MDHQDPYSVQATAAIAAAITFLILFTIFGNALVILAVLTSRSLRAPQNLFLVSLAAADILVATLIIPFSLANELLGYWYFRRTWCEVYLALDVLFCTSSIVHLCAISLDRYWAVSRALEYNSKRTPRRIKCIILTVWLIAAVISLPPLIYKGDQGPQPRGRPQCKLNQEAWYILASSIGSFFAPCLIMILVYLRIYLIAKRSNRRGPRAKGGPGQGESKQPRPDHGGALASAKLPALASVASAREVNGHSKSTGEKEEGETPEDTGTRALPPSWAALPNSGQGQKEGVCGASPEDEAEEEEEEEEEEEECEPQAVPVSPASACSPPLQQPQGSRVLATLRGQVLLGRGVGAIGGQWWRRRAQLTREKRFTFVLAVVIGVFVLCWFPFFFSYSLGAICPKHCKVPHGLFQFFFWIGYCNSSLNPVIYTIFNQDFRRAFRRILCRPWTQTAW

[12] = molecular target: Prostaglandin E2 receptor EP2 subtype (Homo sapiens) (UniProt P43116); test: Binding affinity to Prostanoid EP2 receptor (unknown origin) 10 umol/L by radioligand binding assay; conditions: dose 10.0 µmol/L
[13] = molecular target: Glucocorticoid receptor (Homo sapiens) (UniProt P04150); test: Binding affinity to glucocorticoid receptor (unknown origin) 10 umol/L by radioligand binding assay; conditions: dose 10.0 µmol/L
Chain of Glucocorticoid receptor (Homo sapiens) (P04150 whole entry): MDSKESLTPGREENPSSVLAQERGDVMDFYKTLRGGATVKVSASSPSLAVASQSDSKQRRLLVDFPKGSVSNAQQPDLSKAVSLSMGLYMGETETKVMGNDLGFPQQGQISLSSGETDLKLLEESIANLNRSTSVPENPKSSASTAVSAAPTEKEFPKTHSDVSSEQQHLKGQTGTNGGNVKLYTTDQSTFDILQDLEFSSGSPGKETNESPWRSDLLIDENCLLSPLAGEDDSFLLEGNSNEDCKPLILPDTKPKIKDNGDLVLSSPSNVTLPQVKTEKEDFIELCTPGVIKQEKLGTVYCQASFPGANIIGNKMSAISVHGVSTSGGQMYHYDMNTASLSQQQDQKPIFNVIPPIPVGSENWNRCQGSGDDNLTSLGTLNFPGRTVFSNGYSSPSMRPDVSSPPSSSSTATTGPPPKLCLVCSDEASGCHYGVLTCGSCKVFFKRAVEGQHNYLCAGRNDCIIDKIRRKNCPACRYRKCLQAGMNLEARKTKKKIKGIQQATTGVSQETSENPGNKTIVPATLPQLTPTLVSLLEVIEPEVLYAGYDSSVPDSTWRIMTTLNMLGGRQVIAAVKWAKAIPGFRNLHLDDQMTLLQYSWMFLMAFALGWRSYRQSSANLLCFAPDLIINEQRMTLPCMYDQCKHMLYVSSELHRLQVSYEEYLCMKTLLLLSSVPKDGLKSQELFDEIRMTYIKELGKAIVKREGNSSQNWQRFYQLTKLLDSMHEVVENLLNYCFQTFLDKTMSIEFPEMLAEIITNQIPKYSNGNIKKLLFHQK

[14] = molecular target: 5-hydroxytryptamine receptor 2A (Homo sapiens) (UniProt P28223); test: Binding affinity to 5-HT2A receptor (unknown origin) 10 umol/L by radioligand binding assay; conditions: dose 10.0 µmol/L
[15] = molecular target: Melatonin receptor type 1A (Homo sapiens) (UniProt P48039); test: Binding affinity to MT1 receptor (unknown origin) 10 umol/L by radioligand binding assay; conditions: dose 10.0 µmol/L
[16] = molecular target: Vasopressin V1b receptor (Homo sapiens) (UniProt P47901); test: Binding affinity to Vasopressin V1b receptor (unknown origin) 10 umol/L by radioligand binding assay; conditions: dose 10.0 µmol/L
[17] = species: Homo sapiens; test: Binding affinity to NMDA receptor polyamine site (unknown origin) 10 umol/L by radioligand binding assay; conditions: dose 10.0 µmol/L
[18] = molecular target: Metabotropic glutamate receptor 3 (Homo sapiens, UniProt Q14832); test: Agonist activity at human mGlu3 receptor expressed in CHO cell membranes by GTPgammaS binding assay relative to control; format: functional
[19] = molecular target: Neuropeptide Y receptor type 2 (Homo sapiens) (UniProt P49146); test: Binding affinity to Y2 receptor (unknown origin) 10 umol/L by radioligand binding assay; conditions: dose 10.0 µmol/L
[20] = molecular target: Muscarinic acetylcholine receptor M4 (Homo sapiens) (UniProt P08173); test: Binding affinity to muscarinic M4 (unknown origin) 10 umol/L by radioligand binding assay; conditions: dose 10.0 µmol/L
[21] = molecular target: Alpha-1A adrenergic receptor (Homo sapiens) (UniProt P35348); test: Binding affinity to alpha1A adrenoreceptor (unknown origin) 10 umol/L by radioligand binding assay; conditions: dose 10.0 µmol/L
[22] = molecular target: Neuropeptide Y receptor type 1 (Homo sapiens) (UniProt P25929); test: Binding affinity to Y1 receptor (unknown origin) 10 umol/L by radioligand binding assay; conditions: dose 10.0 µmol/L
[23] = molecular target: Muscarinic acetylcholine receptor M1 (Homo sapiens) (UniProt P11229); test: Binding affinity to muscarinic M1 (unknown origin) 10 umol/L by radioligand binding assay; conditions: dose 10.0 µmol/L
[24] = species: Homo sapiens; test: Binding affinity to glycine receptor strychnine-sensitive binding site (unknown origin) 10 umol/L by radioligand binding assay; conditions: dose 10.0 µmol/L
[25] = molecular target: Sigma intracellular receptor 2 (Homo sapiens) (UniProt Q5BJF2); test: Binding affinity to sigma2 receptor (unknown origin) 10 umol/L by radioligand binding assay; conditions: dose 10.0 µmol/L
Chain of Sigma intracellular receptor 2 (Homo sapiens) (Q5BJF2 whole entry): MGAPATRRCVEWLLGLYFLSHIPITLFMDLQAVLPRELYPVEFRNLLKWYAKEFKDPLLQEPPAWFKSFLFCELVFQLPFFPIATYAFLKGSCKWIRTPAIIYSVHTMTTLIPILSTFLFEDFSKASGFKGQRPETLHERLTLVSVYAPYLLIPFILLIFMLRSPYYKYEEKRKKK

[26] = molecular target: Adenosine receptor A3 (Homo sapiens) (UniProt P0DMS8); test: Binding affinity to A3 receptor (unknown origin) 10 umol/L by radioligand binding assay; conditions: dose 10.0 µmol/L
Chain of Adenosine receptor A3 (Homo sapiens) (P0DMS8 whole entry): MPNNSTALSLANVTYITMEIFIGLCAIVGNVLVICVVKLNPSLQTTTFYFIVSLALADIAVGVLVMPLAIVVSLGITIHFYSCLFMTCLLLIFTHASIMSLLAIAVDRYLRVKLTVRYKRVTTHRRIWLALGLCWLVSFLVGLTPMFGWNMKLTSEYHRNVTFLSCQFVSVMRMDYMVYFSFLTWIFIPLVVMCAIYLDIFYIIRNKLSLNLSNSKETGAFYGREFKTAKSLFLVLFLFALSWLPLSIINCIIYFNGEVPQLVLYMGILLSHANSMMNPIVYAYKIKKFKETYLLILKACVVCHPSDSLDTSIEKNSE

[27] = molecular target: B2 bradykinin receptor (Homo sapiens) (UniProt P30411); test: Binding affinity to B2 receptor (unknown origin) 10 umol/L by radioligand binding assay; conditions: dose 10.0 µmol/L
[28] = molecular target: Endothelin-1 receptor (Homo sapiens) (UniProt P25101); test: Binding affinity to ETA receptor (unknown origin) 10 umol/L by radioligand binding assay; conditions: dose 10.0 µmol/L
[29] = molecular target: Androgen receptor (Homo sapiens) (UniProt P10275); test: Binding affinity to androgen receptor (unknown origin) 10 umol/L by radioligand binding assay; conditions: dose 10.0 µmol/L
Chain of Androgen receptor (Homo sapiens) (P10275 whole entry): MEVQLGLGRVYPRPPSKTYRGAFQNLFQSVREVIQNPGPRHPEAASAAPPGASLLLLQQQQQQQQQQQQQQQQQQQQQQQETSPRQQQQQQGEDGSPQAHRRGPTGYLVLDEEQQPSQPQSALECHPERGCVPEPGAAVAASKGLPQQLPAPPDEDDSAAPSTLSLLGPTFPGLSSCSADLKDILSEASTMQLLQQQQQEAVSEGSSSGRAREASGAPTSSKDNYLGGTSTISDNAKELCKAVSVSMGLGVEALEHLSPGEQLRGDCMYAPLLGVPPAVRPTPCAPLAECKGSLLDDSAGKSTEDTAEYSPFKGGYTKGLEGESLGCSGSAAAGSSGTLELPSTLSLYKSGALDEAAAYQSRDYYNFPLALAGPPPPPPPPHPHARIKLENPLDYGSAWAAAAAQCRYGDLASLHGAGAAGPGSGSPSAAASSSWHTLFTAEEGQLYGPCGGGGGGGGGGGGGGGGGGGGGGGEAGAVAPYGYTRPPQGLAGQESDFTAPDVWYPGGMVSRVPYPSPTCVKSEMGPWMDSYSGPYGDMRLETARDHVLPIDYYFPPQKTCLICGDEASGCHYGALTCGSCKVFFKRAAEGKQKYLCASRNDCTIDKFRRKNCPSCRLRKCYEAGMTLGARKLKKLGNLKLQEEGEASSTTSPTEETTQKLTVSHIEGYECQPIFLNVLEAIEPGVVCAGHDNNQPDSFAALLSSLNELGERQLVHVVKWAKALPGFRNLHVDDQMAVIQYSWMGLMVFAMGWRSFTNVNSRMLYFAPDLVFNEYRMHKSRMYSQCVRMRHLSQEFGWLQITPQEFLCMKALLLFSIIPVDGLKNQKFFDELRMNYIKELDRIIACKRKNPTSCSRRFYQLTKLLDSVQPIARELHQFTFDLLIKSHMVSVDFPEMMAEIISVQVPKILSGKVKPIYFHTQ

[30] = molecular target: Sodium-dependent dopamine transporter (Homo sapiens) (UniProt Q01959); test: Binding affinity to dopamine transporter (unknown origin) 10 umol/L by radioligand binding assay; conditions: dose 10.0 µmol/L
Chain of Sodium-dependent dopamine transporter (Homo sapiens) (Q01959 whole entry): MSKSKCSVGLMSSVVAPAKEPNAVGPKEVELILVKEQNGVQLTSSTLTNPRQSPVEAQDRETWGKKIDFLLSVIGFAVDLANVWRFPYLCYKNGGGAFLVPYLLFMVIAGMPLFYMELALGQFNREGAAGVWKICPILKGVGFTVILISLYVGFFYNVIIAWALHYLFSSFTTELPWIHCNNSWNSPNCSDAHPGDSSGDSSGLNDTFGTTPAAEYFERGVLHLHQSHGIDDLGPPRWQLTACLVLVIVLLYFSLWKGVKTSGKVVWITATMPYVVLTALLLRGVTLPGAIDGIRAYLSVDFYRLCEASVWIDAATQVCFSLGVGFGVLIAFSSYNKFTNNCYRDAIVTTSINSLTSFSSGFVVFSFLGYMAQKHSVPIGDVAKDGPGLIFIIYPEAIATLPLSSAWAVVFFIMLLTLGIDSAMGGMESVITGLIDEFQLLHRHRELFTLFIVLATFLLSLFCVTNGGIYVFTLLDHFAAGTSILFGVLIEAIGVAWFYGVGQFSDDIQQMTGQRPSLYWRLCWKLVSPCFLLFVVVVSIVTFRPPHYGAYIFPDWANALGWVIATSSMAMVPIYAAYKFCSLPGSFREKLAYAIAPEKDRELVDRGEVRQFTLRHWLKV

[31] = species: Homo sapiens; test: Binding affinity to NMDA receptor PCP site (unknown origin) 10 umol/L by radioligand binding assay; conditions: dose 10.0 µmol/L
[32] = molecular target: Histamine H2 receptor (Homo sapiens) (UniProt P25021); test: Binding affinity to H2 receptor (unknown origin) 10 umol/L by radioligand binding assay; conditions: dose 10.0 µmol/L
[33] = molecular target: B1 bradykinin receptor (Homo sapiens) (UniProt P46663); test: Binding affinity to B1 receptor (unknown origin) 10 umol/L by radioligand binding assay; conditions: dose 10.0 µmol/L
[34] = species: Homo sapiens; test: Binding affinity to D4.2 receptor (unknown origin) 10 umol/L by radioligand binding assay; conditions: dose 10.0 µmol/L
[35] = species: Homo sapiens; test: Binding affinity to Vasopressin V1 receptor (unknown origin) 10 umol/L by radioligand binding assay; conditions: dose 10.0 µmol/L
[36] = species: Homo sapiens; test: Binding affinity to GABAB (unknown origin) 10 umol/L by radioligand binding assay; conditions: dose 10.0 µmol/L
[37] = molecular target: T1, Voltage-gated L-type calcium channel; test: Binding affinity to Voltage-dependent L-type calcium channel dihydropyridine site (unknown origin) 10 umol/L by radioligand binding assay; format: protein assay; conditions: 10 µM, dose 10 µmol/L
[38] = molecular target: Type-2 angiotensin II receptor (Homo sapiens) (UniProt P50052); test: Binding affinity to AT2 receptor (unknown origin) 10 umol/L by radioligand binding assay; conditions: dose 10.0 µmol/L
[39] = species: Homo sapiens; test: Binding affinity to sodium channel site 2 (unknown origin) 10 umol/L by radioligand binding assay; conditions: dose 10.0 µmol/L
[40] = molecular target: Neurotensin receptor type 1 (Homo sapiens) (UniProt P30989); test: Binding affinity to NT1 receptor (unknown origin) 10 umol/L by radioligand binding assay; conditions: dose 10.0 µmol/L
[41] = molecular target: Adenosine receptor A2a (Homo sapiens) (UniProt P29274); test: Binding affinity to A2a receptor (unknown origin) at 10 umol/L by radioligand binding assay; conditions: dose 10.0 µmol/L
Chain of Adenosine receptor A2a (Homo sapiens) (P29274 whole entry): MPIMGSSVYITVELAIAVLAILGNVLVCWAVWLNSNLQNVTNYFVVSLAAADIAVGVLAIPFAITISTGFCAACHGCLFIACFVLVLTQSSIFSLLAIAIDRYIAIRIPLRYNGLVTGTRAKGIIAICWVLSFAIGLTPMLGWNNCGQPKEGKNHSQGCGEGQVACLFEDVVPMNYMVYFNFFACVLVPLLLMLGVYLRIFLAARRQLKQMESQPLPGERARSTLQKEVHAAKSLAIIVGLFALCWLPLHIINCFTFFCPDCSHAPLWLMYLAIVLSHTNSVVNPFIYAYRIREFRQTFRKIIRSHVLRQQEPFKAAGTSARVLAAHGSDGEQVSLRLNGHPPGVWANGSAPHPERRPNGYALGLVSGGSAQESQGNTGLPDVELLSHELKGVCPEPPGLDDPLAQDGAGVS

[42] = molecular target: Cannabinoid receptor 2 (Homo sapiens) (UniProt P34972); test: Binding affinity to CB2 (unknown origin) 10 umol/L by radioligand binding assay; conditions: dose 10.0 µmol/L
[43] = molecular target: Gastrin/cholecystokinin type B receptor (Homo sapiens) (UniProt P32239); test: Binding affinity to CCKB (unknown origin) 10 umol/L by radioligand binding assay; conditions: dose 10.0 µmol/L
Chain of Gastrin/cholecystokinin type B receptor (Homo sapiens) (P32239 whole entry): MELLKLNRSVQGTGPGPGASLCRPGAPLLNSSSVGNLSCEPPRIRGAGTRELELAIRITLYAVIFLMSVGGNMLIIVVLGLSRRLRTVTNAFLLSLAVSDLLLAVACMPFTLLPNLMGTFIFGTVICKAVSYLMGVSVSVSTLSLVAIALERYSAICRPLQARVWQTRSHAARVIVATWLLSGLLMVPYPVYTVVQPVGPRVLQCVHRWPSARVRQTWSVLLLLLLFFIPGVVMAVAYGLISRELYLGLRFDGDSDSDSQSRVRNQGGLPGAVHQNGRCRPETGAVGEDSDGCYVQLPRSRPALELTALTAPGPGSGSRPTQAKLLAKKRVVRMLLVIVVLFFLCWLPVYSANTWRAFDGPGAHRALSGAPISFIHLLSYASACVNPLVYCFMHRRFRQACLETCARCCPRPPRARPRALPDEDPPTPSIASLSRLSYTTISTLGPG

With N[C@]1(C(=O)O)[C@H]2[C@@H](C[C@@H]1F)[C@@H]2C(=O)O the Activity [1] was “inactive”, the Activity [2] was “inactive” and the Activity [3] was “Not Active”. For the same compound, the Activity [4] was “inactive”, the Activity [5] was “inactive” and the logD ([6]; 1.5 h) was -4.02. The Activity [7] was “inactive”, the Activity [8] was “inactive” and the Activity [9] was “inactive”. The Activity [10] was “inactive”, the Activity [11] was “inactive” and the Activity [12] was “inactive”. For the same compound, the Activity [13] was “inactive”, the Activity [14] was “inactive” and the Activity [15] was “inactive”. For the same compound, the Activity [16] was “inactive”, the Activity [17] was “inactive” and the Emax ([18]; Cell membrane, filed as agonist) was 102%. For the same compound, the Activity [19] was “inactive”, the Activity [20] was “inactive” and the Activity [21] was “inactive”. For the same compound, the Activity [22] was “inactive”, the Activity [23] was “inactive” and the Activity [24] was “inactive”. The Activity [25] was “inactive”, the Activity [26] was “inactive” and the Activity [27] was “inactive”. The Activity [28] was “inactive”, the Activity [29] was “inactive” and the Activity [30] was “inactive”. For the same compound, the Activity [31] was “inactive”, the Activity [32] was “inactive” and the Activity [33] was “inactive”. The Activity [34] was “inactive”, the Activity [35] was “inactive” and the Activity [36] was “inactive”. For the same compound, the Activity [37] was “Not Active”, the Activity [38] was “inactive” and the Activity [39] was “inactive”. The Activity [40] was “inactive”, the Activity [41] was “inactive” and the Activity [42] was “inactive”. For the same compound, the Activity [43] was “inactive”.
With CC(C)[C@@H]1CC[C@@H](C)C[C@H]1OC(=O)O[C@@H](C)OC(=O)[C@H]1[C@@H]2C[C@H](F)[C@@](N)(C(=O)O)[C@@H]21 the Activity [1] was “inactive”, the Activity [2] was “inactive” and the Activity [3] was “Not Active”. The Activity [4] was “inactive”, the Activity [5] was “inactive” and the logD at 1.5 h ([6]; n-octanol/phosphate buffered saline) was greater than 2.04. The Activity [7] was “inactive”, the Activity [8] was “inactive” and the Activity [9] was “inactive”. The Activity [10] was “inactive”, the Activity [11] was “inactive” and the Activity [12] was “inactive”. The Activity [13] was “inactive”, the Activity [14] was “inactive” and the Activity [15] was “inactive”. The Activity [16] was “inactive”, the Activity [17] was “inactive” and the pEC50 [18] was less than 4.52. For the same compound, the Activity [19] was “inactive”, the Activity [20] was “inactive” and the Activity [21] was “inactive”. For the same compound, the Activity [22] was “inactive”, the Activity [23] was “inactive” and the Activity [24] was “inactive”. The Activity [25] was “inactive”, the Activity [26] was “inactive” and the Activity [27] was “inactive”. For the same compound, the Activity [28] was “inactive”, the Activity [29] was “inactive” and the Activity [30] was “inactive”. For the same compound, the Activity [31] was “inactive”, the Activity [32] was “inactive” and the Activity [33] was “inactive”. The Activity [34] was “inactive”, the Activity [35] was “inactive” and the Activity [36] was “inactive”. The Activity [37] was “Not Active”, the Activity [38] was “inactive” and the Activity [39] was “inactive”. The Activity [40] was “inactive”, the Activity [41] was “inactive” and the Activity [42] was “inactive”. For the same compound, the Activity [43] was “inactive”.
